Data reported in PubChem BioAssay (NCI).
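Assay format: 96-well plates, 48-hour exposure. TGI is the concentration that stops growth completely.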

Experiments:
Experiment in all cases: growth of human tumour cells (NCI), 48 h
KM12 colon = system: KM12 colon
UO-31 renal = system: UO-31 renal
SNB-19 CNS = system: SNB-19 CNS
EKVX NSCLC = system: EKVX NSCLC
SK-MEL-2 melanoma = system: SK-MEL-2 melanoma
MOLT-4 leukemia = system: MOLT-4 leukemia
SK-MEL-28 melanoma = system: SK-MEL-28 melanoma
M19-MEL melanoma = system: M19-MEL melanoma
DMS 114 small cell lung = system: DMS 114 small cell lung
HCT-15 colon = system: HCT-15 colon
DLD-1 colon = system: DLD-1 colon
ACHN renal = system: ACHN renal
HOP-92 NSCLC = system: HOP-92 NSCLC
U251 CNS = system: U251 CNS
SF-295 CNS = system: SF-295 CNS
NCI-H226 lung = system: NCI-H226 lung
LXFL 529 NSCLC = system: LXFL 529 NSCLC
NCI-H522 lung = system: NCI-H522 lung
SK-MEL-5 melanoma = system: SK-MEL-5 melanoma
OVCAR-3 ovarian = system: OVCAR-3 ovarian
HCC-2998 colon = system: HCC-2998 colon
XF 498 CNS = system: XF 498 CNS
A498 renal = system: A498 renal
SNB-75 CNS = system: SNB-75 CNS
TK-10 renal = system: TK-10 renal
NCI-H460 lung = system: NCI-H460 lung
HOP-62 NSCLC = system: HOP-62 NSCLC
HT29 colon = system: HT29 colon
HL-60(TB) leukemia = system: HL-60(TB) leukemia
CAKI-1 renal = system: CAKI-1 renal
OVCAR-5 ovarian = system: OVCAR-5 ovarian
SF-539 CNS = system: SF-539 CNS
OVCAR-4 ovarian = system: OVCAR-4 ovarian
SK-OV-3 ovarian = system: SK-OV-3 ovarian
RXF 393 renal = system: RXF 393 renal
COLO 205 colon = system: COLO 205 colon
OVCAR-8 ovarian = system: OVCAR-8 ovarian
NCI-H23 lung = system: NCI-H23 lung
A549 NSCLC = system: A549 NSCLC
CCRF-CEM leukemia = system: CCRF-CEM leukemia
SN12C renal = system: SN12C renal
KM20L2 colon = system: KM20L2 colon
M14 melanoma = system: M14 melanoma
K-562 leukemia = system: K-562 leukemia
SW-620 colon = system: SW-620 colon
SF-268 CNS = system: SF-268 CNS
UACC-257 melanoma = system: UACC-257 melanoma
HOP-18 NSCLC = system: HOP-18 NSCLC
LOX IMVI melanoma = system: LOX IMVI melanoma
UACC-62 melanoma = system: UACC-62 melanoma
HCT-116 colon = system: HCT-116 colon
786-0 renal = system: 786-0 renal
RXF-631 renal = system: RXF-631 renal
DMS 273 small cell lung = system: DMS 273 small cell lung
MALME-3M melanoma = system: MALME-3M melanoma
SNB-78 CNS = system: SNB-78 CNS
RPMI-8226 leukemia = system: RPMI-8226 leukemia
IGROV1 ovarian = system: IGROV1 ovarian
SR leukemia = system: SR leukemia

Measured: TGI

CC(=O)NC(Cc1ccccc1)C(=S)N1CCCC1 (stereo unspecified)
not listed: SR leukemia
> 100 µM: all other assays above

COC(=O)C1CCC2(CC1)NC(=O)NC2=O (stereo unspecified)
not listed: HCT-15 colon
> 100 µM: all other assays above
